In paper PMC9320607, “Synthesis, Biological Evaluation and Docking Studies of Ring-Opened Analogues of Ipomoeassin F” (Molecules, 2022):

Assays:
[1] = system: HCT116 Sec61α-G80W cells; test: Resazurin-based cell viability assay in HCT116 Sec61α-G80W cells; parameters: species or system human; details: 50 nM, 72 h
Description: To confirm that Sec61α is the primary target of open-chain analogues and that this interaction underlies their cytotoxic effects, we next used a resazurin-based cell viability assay (Figure 3F) to compare the effects of each compound on the growth of HCT-116 cells that were wild-type for Sec61α (HCT116 Sec61α-WT) or carrying a heterozygous point mutant in SEC61A1 (HCT116 Sec61α-G80W) that confers resistance to Ipom-F, and reduces binding of mycolactone to the Sec61 translocon by mechanism that involves an alteration in translocon dynamics.
The human breast cancer cell line (MDA-MB-231) was maintained in a DMEM high glucose culture medium supplemented with 10% (v/v) fetal bovine serum (FBS) and 2 mM L-glutamine. […] Cytotoxicity assays were performed in triplicate sets as previously described and viable cells were counted using an automated cell counter (Bio-Rad TC20) immediately before each experiment. […] After that, all cells were incubated at 37 °C for a further 1–3 h and the emission of each well at 620 nm was detected using a Synergy H1 Hybrid multi-mode plate reader (BioTek, Agilent Technologies, Palo Alto, CA, USA) at excitation 580 nm. […] IC50 value estimates were determined using nonlinear regression to fit data to a curve of variable slope (four parameters) using the least-squares fitting method. […]

[2] = system: membrane integration of GypC; test: In vitro membrane insertion assay of GypC with ER microsomes (selectivity control); format: biochemical, canine; details: 1 µM compound
Experimental: Following the successful synthesis of analogue 3, we first analyzed its effects on the in vitro membrane integration of our two model protein substrates, Ii and GypC (Figure 6A–C).
Linear DNA of the short form of human HLA class II histocompatibility antigen gamma chain (Ii; P04232, isoform 2, residues 17–232) or human glycophorin C (GypC; P04921) were generated by PCR and transcribed into RNA using T7 RNA polymerase (Promega). Membrane insertion assays (20 µL, 1 h at 30 °C, containing 6.5% (v/v) nuclease-treated ER microsomes (from stock with OD280 = 44/mL)), endoglycosidase Hf (New England Biolabs) treatment, sample resolution by SDS-PAGE (16% polyacrylamide gels) and gel drying were performed as previously described. Following exposure to a phosphorimaging plate for 24–72 h, radiolabeled products were visualized using a Typhoon FLA-7000 (GE Healthcare, Tokyo, Japan) and the ratio of the signal intensity for the N-glycosylated (XGly) and non-glycosylated (0Gly) forms obtained using AIDA v.5.0 (Raytest Isotopenmeβgeräte). This value was then expressed relative to the matched DMSO control (set to 100%) in order to estimate the mean relative insertion (± SEM) from insertion experiments performed in triplicate (n = 3, biologically independent experiments). […]

[3] = biological target: T1, Sec61-mediated protein translocation (membrane integration of Ii) (Canis lupus familiaris, UniProt P38377); test: In vitro membrane insertion assay of Ii with ER microsomes; format: biochemical, canine
T1 construct: cell-free translation system supplemented with ER microsomes derived from canine pancreas; from tissue; host or cells: canine pancreas ER microsomes (nuclease-treated); the Ii substrate was translated in vitro from T7-transcribed RNA
Description: Having previously established that the principal molecular basis for the cytotoxicity of Ipom-F is its strong, yet reversible, binding to Sec61α and the resultant wide-ranging blockade of Sec61-mediated protein translocation at the ER [13], we sought evidence that this mechanism also underlies the cytotoxic effects of 1 and other open-chain analogues. […] For comparative purposes, we analyzed the effects of 2 [13] and two closed-chain compounds: Ipom-F and the diester-modified analogue 22 [11] in parallel (Figure 3A).
Following the resolution of radiolabeled proteins by SDS-PAGE (Figure 3B), we used the efficiency with which the N-terminal domain of the type II integral membrane protein Ii (short form of HLA class II histocompatibility antigen gamma chain, isoform 1) was N-glycosylated inside the ER lumen as a robust reporter for the authentic membrane integration of this model Sec61-dependent protein client (Figure 3B, right upper panel, 0Gly versus 2 Gly forms).
Linear DNA of the short form of human HLA class II histocompatibility antigen gamma chain (Ii; P04232, […], residues 17–232) or human glycophorin C (GypC; P04921) were generated by PCR and transcribed into RNA using T7 RNA polymerase (Promega). Membrane insertion assays (20 µL, 1 h at 30 °C, containing 6.5% (v/v) nuclease-treated ER microsomes (from stock with OD280 = 44/mL)), endoglycosidase Hf (New England Biolabs) treatment, sample resolution by SDS-PAGE (16% polyacrylamide gels) and gel drying were performed as previously described. Following exposure to a phosphorimaging plate for 24–72 h, radiolabeled products were visualized using a Typhoon FLA-7000 (GE Healthcare, Tokyo, Japan) and the ratio of the signal intensity for the N-glycosylated (XGly) and non-glycosylated (0Gly) forms obtained using AIDA v.5.0 (Raytest Isotopenmeβgeräte). This value was then expressed relative to the matched DMSO control (set to 100%) in order to estimate the mean relative insertion (± SEM) from insertion experiments performed in triplicate (n = 3, biologically independent experiments). IC50 value estimates were determined in Prism 8 (GraphPad, San Diego, CA, USA) using nonlinear regression to fit data to a curve of variable slope (four parameters) using the least-squares fitting method, with the top and bottom plateaus of the curve defined as 100% and 7.67% (the mean of all data at 500 µM across all compounds), respectively.

[4] = system: HCT116 Sec61α-WT cells; test: Resazurin-based cell viability assay in HCT116 Sec61α-WT cells; parameters: species or system human; details: HCT116 Sec61α-WT cells, 72 h
Experimental: Parental (Sec61α-WT) […] All cell lines were maintained in a 5% CO2 humidified incubator at 37 °C. Cytotoxicity assays were performed in triplicate sets as previously described and viable cells were counted using an automated cell counter (Bio-Rad TC20) immediately before each experiment. Compound stock solutions in DMSO (10 mM) were diluted with supplemented culture media (MDA-MB-231 cells: high glucose DMEM; HCT116 Sec61α-WT and Sec61α-G80W cells: McCoy’s (modified) 5A) to make a series of gradient fresh working solutions at equal DMSO percentage immediately prior to each test. […] For MDA-MB-231 cells, the media were discarded and […] fresh medium containing 10% (v/v) alamarBlue HS cell viability reagent (resazurin stock solution) (ThermoFisher, Waltham, MA, USA, A50100) was added to each well. For Sec61α-WT or Sec61α-G80W HCT-116 cells, the media was not discarded and alamarBlue HS cell viability reagent (resazurin stock solution) (ThermoFisher, Waltham, MA, USA, A50100) was added to 10% (v/v). After that, all cells were incubated at 37 °C for a further 1–3 h and the emission of each well at 620 nm was detected using a Synergy H1 Hybrid multi-mode plate reader (BioTek, Agilent Technologies, Palo Alto, CA, USA) at excitation 580 nm. […] IC50 value estimates were determined using nonlinear regression to fit data to a curve of variable slope (four parameters) using the least-squares fitting method.

T1 sequence (P60058 whole entry): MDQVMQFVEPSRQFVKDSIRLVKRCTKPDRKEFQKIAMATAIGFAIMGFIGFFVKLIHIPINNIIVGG
T1 sequence (P38377 2-476): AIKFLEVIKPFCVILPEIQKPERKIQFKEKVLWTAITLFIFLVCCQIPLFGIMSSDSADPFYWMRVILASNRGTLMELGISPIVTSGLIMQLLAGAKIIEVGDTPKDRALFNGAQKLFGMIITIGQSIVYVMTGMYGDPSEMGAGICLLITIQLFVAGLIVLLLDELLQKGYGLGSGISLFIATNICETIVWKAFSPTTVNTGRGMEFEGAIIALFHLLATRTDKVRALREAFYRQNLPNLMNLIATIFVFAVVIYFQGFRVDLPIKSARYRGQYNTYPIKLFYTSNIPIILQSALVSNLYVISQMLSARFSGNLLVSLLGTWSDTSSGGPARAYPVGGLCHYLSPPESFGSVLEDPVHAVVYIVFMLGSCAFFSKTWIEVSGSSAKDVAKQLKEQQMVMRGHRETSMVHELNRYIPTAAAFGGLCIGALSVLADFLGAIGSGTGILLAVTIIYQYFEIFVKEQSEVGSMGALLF
T1 sequence (P60467 2-96, further chain): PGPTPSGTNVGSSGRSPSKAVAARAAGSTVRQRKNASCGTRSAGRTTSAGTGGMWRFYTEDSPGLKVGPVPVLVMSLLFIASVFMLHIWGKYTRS

reduction in Ii membrane integration ([3]; 1 µM compound): 73–86% | IC50 ([3]; estimated from titration 500 µM–5 nM, read-out: IC50 (in vitro membrane integration of Ii)): 242 nM
SMILES: CC=C(C)C(=O)OC1C(O)C(OC2C(OC(CCCCC)CCCCC)OC(C)C(OC(C)=O)C2O)OC(COC(=O)CCC(=O)OCCCC)C1OC(=O)C=Cc1ccccc1 (stereo not drawn) [analogue 3]
effect on cell viability [1]: cell death was not observed | effect on membrane integration of GypC [2]: did not affect | cell death ([4]; 50 nM): ~ 58% | IC50 ([4]; Homo sapiens, HCT-116, titration 25 µM–1 nM, read-out: IC50 (cytotoxicity)): 40 nM
